Test results as given in ChEMBL document CHEMBL1201862, “PubChem BioAssay data set” (2004).
“And” between values parts separate entries of the source, which are not always exact repeats. Equal entries are not always repeated.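 These data come from cells grown in 96-well plates and exposed to compound for 48 hours at five concentrations. The concentration for 50% growth inhibition is given as GI50.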 The source made the active and inactive calls. Rule as the data show it: active = GI50 up to about 1.1 µM and inactive = higher.

Legend:
Experiment in all cases: NCI anticancer screen, dose series, 48 h
[1] = test system: A498
[2] = test system: OVCAR-5
[3] = test system: EKVX
[4] = test system: A549
[5] = test system: RPMI-8226
[6] = test system: NCI-H522
[7] = test system: TK-10
[8] = test system: NCI-H23
[9] = test system: SK-MEL-2
[10] = test system: UO-31
[11] = test system: SN12C
[12] = test system: Malme-3M
[13] = test system: LOX IMVI
[14] = test system: ACHN
[15] = test system: MOLT-4
[16] = test system: COLO 205
[17] = test system: HCC 2998
[18] = test system: OVCAR-8
[19] = test system: HL-60
[20] = test system: SNB-75

For `CC(=O)OC1COC(N2CCc3ccccc32)C(OC(C)=O)C1OC(C)=O` (stereo not drawn), the GI50 [1] was > 100 µM (inactive), the GI50 [2] was > 100 µM (inactive) and the GI50 [3] was > 100 µM (inactive) and > 57.1 µM (inactive). The GI50 [4] was > 100 µM (inactive), the GI50 [5] was > 100 µM (inactive) and the GI50 [6] was > 100 µM (inactive). The GI50 [7] was > 100 µM (inactive), the GI50 [8] was > 100 µM (inactive) and the GI50 [9] was > 100 µM (inactive). For the same molecule, the GI50 [10] was > 58.7 µM (inactive), the GI50 [11] was > 100 µM (inactive) and the GI50 [12] was > 100 µM (inactive). The GI50 [13] was > 100 µM (inactive), the GI50 [14] was > 100 µM (inactive) and the GI50 [15] was > 100 µM (inactive). For the same molecule, the GI50 [16] was > 100 µM (inactive), the GI50 [17] was > 100 µM (inactive) and the GI50 [18] was > 100 µM (inactive).
With `Nc1nc(N)nc(CC(=O)O)n1` the GI50 [1] was > 100 µM (inactive), the GI50 [2] was > 100 µM (inactive) and the GI50 [3] was > 100 µM (inactive). For the same molecule, the GI50 [4] was > 100 µM (inactive), the GI50 [5] was > 100 µM (inactive) and the GI50 [6] was > 100 µM (inactive). The GI50 [7] was > 100 µM (inactive), the GI50 [8] was > 100 µM (inactive) and the GI50 [19] was > 100 µM (inactive). The GI50 [9] was > 100 µM (inactive), the GI50 [20] was > 100 µM (inactive) and the GI50 [10] was > 100 µM (inactive). The GI50 [11] was > 100 µM (inactive), the GI50 [12] was > 100 µM (inactive) and the GI50 [13] was > 100 µM (inactive). The GI50 [14] was > 100 µM (inactive), the GI50 [15] was > 100 µM (inactive) and the GI50 [16] was > 100 µM (inactive). For the same molecule, the GI50 [18] was > 100 µM (inactive).
In the case of `OC1C2CN3CCN(C2)CC1(c1ccccc1)C3` (stereo not drawn), the GI50 [1] is reported as > 100 µM (inactive), the GI50 [2] is reported as > 100 µM (inactive) and the GI50 [3] is reported as > 100 µM (inactive). For the same molecule, the GI50 [5] was > 100 µM (inactive), the GI50 [6] was > 100 µM (inactive) and the GI50 [7] was > 100 µM (inactive). The GI50 [8] was > 100 µM (inactive), the GI50 [19] was > 100 µM (inactive) and the GI50 [9] was > 100 µM (inactive). The GI50 [20] was > 100 µM (inactive), the GI50 [10] was > 100 µM (inactive) and the GI50 [11] was > 100 µM (inactive). For the same molecule, the GI50 [12] was > 100 µM (inactive), the GI50 [13] was > 100 µM (inactive) and the GI50 [14] was > 100 µM (inactive). For the same molecule, the GI50 [15] was > 100 µM (inactive), the GI50 [16] was > 100 µM (inactive) and the GI50 [18] was > 100 µM (inactive).
With `Cc1cc(C)n(-c2nc3ccccc3c(=O)n2-c2ccccc2)n1` the GI50 [1] was > 100 µM (inactive), the GI50 [2] was > 100 µM (inactive) and the GI50 [4] was > 100 µM (inactive). The GI50 [6] was > 100 µM (inactive), the GI50 [7] was > 100 µM (inactive) and the GI50 [8] was > 100 µM (inactive). For the same molecule, the GI50 [19] was > 100 µM (inactive), the GI50 [9] was 67 µM (inactive) and the GI50 [20] was > 100 µM (inactive). The GI50 [10] was 0.621 µM (active), the GI50 [11] was > 100 µM (inactive) and the GI50 [12] was > 100 µM (inactive). For the same molecule, the GI50 [13] was > 100 µM (inactive), the GI50 [14] was > 100 µM (inactive) and the GI50 [15] was > 100 µM (inactive). The GI50 [16] was > 100 µM (inactive), the GI50 [17] was > 100 µM (inactive) and the GI50 [18] was > 100 µM (inactive).
In the case of `CC(=O)/C(=C/NC(=S)Nc1ccc(Cl)c(Cl)c1)C(=O)Nc1ccccc1C`, the GI50 [1] is reported as 26.2 µM (inactive), the GI50 [2] is reported as 32 µM (inactive) and the GI50 [3] is reported as 21.5 µM (inactive). For the same molecule, the GI50 [4] was 34.1 µM (inactive), the GI50 [7] was 43.8 µM (inactive) and the GI50 [8] was 23.6 µM (inactive). The GI50 [19] was 17.1 µM (inactive), the GI50 [9] was 28 µM (inactive) and the GI50 [20] was 18.1 µM (inactive). The GI50 [10] was 22.3 µM (inactive), the GI50 [11] was 35.7 µM (inactive) and the GI50 [13] was 34 µM (inactive). The GI50 [14] was 32.6 µM (inactive), the GI50 [15] was 16 µM (inactive) and the GI50 [16] was 28.2 µM (inactive). The GI50 [17] was 32.3 µM (inactive) and the GI50 [18] was 18.9 µM (inactive).
With `O=C1C2C3CC(C4C5C=CC(C5)C34)C2C2C3CC(C12)C1C2C=CC(C2)C31` (stereo not drawn) the GI50 [1] was > 100 µM (inactive), the GI50 [2] was > 100 µM (inactive) and the GI50 [3] was > 100 µM (inactive). The GI50 [4] was > 100 µM (inactive), the GI50 [6] was > 100 µM (inactive) and the GI50 [7] was > 100 µM (inactive). The GI50 [8] was > 100 µM (inactive), the GI50 [19] was 75.2 µM (inactive) and the GI50 [9] was > 100 µM (inactive). The GI50 [20] was > 100 µM (inactive), the GI50 [10] was > 100 µM (inactive) and the GI50 [11] was > 100 µM (inactive). For the same molecule, the GI50 [12] was > 100 µM (inactive), the GI50 [13] was 28.8 µM (inactive) and the GI50 [14] was > 100 µM (inactive). For the same molecule, the GI50 [15] was > 100 µM (inactive), the GI50 [16] was > 100 µM (inactive) and the GI50 [17] was > 100 µM (inactive). For the same molecule, the GI50 [18] was > 100 µM (inactive).
In the case of `O=C(Cc1nc2ccccc2s1)C(=O)Nc1cccc(C(F)(F)F)c1`, the GI50 [1] is reported as > 100 µM (inactive), the GI50 [3] is reported as > 100 µM (inactive) and the GI50 [4] is reported as > 100 µM (inactive). For the same molecule, the GI50 [6] was > 100 µM (inactive), the GI50 [7] was > 100 µM (inactive) and the GI50 [8] was > 100 µM (inactive). For the same molecule, the GI50 [19] was > 100 µM (inactive), the GI50 [9] was > 100 µM (inactive) and the GI50 [20] was > 100 µM (inactive). The GI50 [10] was > 100 µM (inactive), the GI50 [11] was > 100 µM (inactive) and the GI50 [12] was > 100 µM (inactive). For the same molecule, the GI50 [14] was > 100 µM (inactive), the GI50 [15] was > 100 µM (inactive) and the GI50 [16] was > 100 µM (inactive). For the same molecule, the GI50 [17] was > 100 µM (inactive) and the GI50 [18] was > 100 µM (inactive).
With `O=C(CC1C(=O)Nc2ccccc2[S+]1[O-])Nc1ccccc1` (stereo not drawn) the GI50 [1] was > 100 µM (inactive), the GI50 [2] was > 100 µM (inactive) and the GI50 [3] was > 100 µM (inactive). The GI50 [4] was > 100 µM (inactive), the GI50 [6] was > 100 µM (inactive) and the GI50 [7] was > 100 µM (inactive). The GI50 [8] was > 100 µM (inactive), the GI50 [19] was > 100 µM (inactive) and the GI50 [9] was > 100 µM (inactive). The GI50 [20] was 29.6 µM (inactive), the GI50 [10] was 37.5 µM (inactive) and the GI50 [11] was > 100 µM (inactive). For the same molecule, the GI50 [12] was > 100 µM (inactive), the GI50 [14] was 59.7 µM (inactive) and the GI50 [15] was > 100 µM (inactive). For the same molecule, the GI50 [16] was > 100 µM (inactive), the GI50 [17] was > 100 µM (inactive) and the GI50 [18] was 36.4 µM (inactive).
For `CC1=CC2(C)C=C[C@@H]1C(=O)[C@@]1(C)CC[C@@](O)(C(C)C)[C@H]1CC2`, the GI50 [1] was 28.6 µM (inactive), the GI50 [2] was 17.9 µM (inactive) and the GI50 [3] was 24.4 µM (inactive). The GI50 [4] was 34.6 µM (inactive), the GI50 [5] was 26.5 µM (inactive) and the GI50 [7] was 36.6 µM (inactive). For the same molecule, the GI50 [8] was 19.1 µM (inactive), the GI50 [9] was 33.3 µM (inactive) and the GI50 [20] was 20.9 µM (inactive). The GI50 [10] was 17.6 µM (inactive), the GI50 [11] was 20.9 µM (inactive) and the GI50 [12] was 19.4 µM (inactive). For the same molecule, the GI50 [13] was 19.1 µM (inactive), the GI50 [14] was 17.6 µM (inactive) and the GI50 [15] was 24.8 µM (inactive). The GI50 [16] was 20.7 µM (inactive), the GI50 [17] was 17.5 µM (inactive) and the GI50 [18] was 17.1 µM (inactive).
For `CC(=O)Oc1cc(/C=C/c2ccc(O)cc2)cc(OC(C)=O)c1`, the GI50 [1] was 25.4 µM (inactive), the GI50 [2] was 46 µM (inactive) and the GI50 [4] was 24.8 µM (inactive). For the same molecule, the GI50 [5] was 4.7 µM (inactive), the GI50 [6] was 26 µM (inactive) and the GI50 [7] was 24.9 µM (inactive). The GI50 [8] was 11.7 µM (inactive), the GI50 [19] was 18.8 µM (inactive) and the GI50 [9] was 63.5 µM (inactive). For the same molecule, the GI50 [20] was 22.1 µM (inactive), the GI50 [10] was 36.4 µM (inactive) and the GI50 [11] was 19 µM (inactive). The GI50 [12] was 17.7 µM (inactive), the GI50 [14] was 9.59 µM (inactive) and the GI50 [15] was 16.8 µM (inactive). For the same molecule, the GI50 [16] was > 100 µM (inactive) and the GI50 [18] was 35.8 µM (inactive).
`NC(=O)c1cc([N+](=O)[O-])cc([N+](=O)[O-])c1` [NITROMIDE] was tested, and the GI50 [1] was > 100 µM (inactive), the GI50 [2] was > 100 µM (inactive) and the GI50 [3] was > 100 µM (inactive). The GI50 [4] was > 100 µM (inactive), the GI50 [5] was > 100 µM (inactive) and the GI50 [6] was > 100 µM (inactive). For the same molecule, the GI50 [7] was > 100 µM (inactive), the GI50 [8] was > 100 µM (inactive) and the GI50 [19] was 40.9 µM (inactive). The GI50 [9] was > 100 µM (inactive), the GI50 [20] was > 100 µM (inactive) and the GI50 [10] was > 100 µM (inactive). The GI50 [11] was > 100 µM (inactive), the GI50 [12] was 69.3 µM (inactive) and the GI50 [13] was > 100 µM (inactive). The GI50 [14] was > 100 µM (inactive), the GI50 [15] was > 100 µM (inactive) and the GI50 [16] was 30.3 µM (inactive). For the same molecule, the GI50 [18] was > 100 µM (inactive).
